Literature values as cited in paper PMC13207833, “Coumarin–Amino Acid Hybrids Used as Possible Multifactorial Anti-Inflammatory Agents” (International Journal of Molecular Sciences, 2026).

Molecular target: T1, soybean lipoxygenase (SLOX-1) (Glycine max, UniProt P08170)
T1 construct: purchased Merck and Sigma-Aldrich
T1 sequence (P08170 1-839): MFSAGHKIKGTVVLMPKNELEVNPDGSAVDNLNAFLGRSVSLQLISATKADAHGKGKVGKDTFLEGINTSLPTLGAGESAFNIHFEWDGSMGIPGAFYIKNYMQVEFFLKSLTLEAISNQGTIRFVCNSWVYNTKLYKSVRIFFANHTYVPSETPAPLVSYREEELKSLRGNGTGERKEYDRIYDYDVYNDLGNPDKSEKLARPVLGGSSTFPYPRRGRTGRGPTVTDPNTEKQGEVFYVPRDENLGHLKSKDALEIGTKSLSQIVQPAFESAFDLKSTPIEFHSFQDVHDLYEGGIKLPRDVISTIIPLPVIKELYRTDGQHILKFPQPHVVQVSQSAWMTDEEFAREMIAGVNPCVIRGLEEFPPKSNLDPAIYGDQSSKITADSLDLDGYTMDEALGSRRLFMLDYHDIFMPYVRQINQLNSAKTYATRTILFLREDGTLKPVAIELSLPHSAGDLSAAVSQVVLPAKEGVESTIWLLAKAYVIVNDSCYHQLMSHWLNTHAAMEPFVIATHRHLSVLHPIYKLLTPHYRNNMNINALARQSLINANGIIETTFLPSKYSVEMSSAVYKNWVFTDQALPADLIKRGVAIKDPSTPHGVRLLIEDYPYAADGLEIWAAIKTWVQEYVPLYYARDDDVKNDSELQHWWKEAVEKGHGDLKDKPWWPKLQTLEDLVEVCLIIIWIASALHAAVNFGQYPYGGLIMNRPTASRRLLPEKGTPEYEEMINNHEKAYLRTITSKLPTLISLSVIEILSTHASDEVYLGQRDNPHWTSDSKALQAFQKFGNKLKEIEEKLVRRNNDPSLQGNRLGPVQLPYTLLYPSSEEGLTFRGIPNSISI
Set-up: method as in PMID 29329232
Settings: value from earlier paper of the group

O=C(O)COc1ccc2ccc(=O)oc2c1 [Compound 3, 2-((2-oxo-2H-chromen-7-yl)oxy)acetic acid]
IC50: 100 µM

O=C(O)COc1ccc2oc(=O)ccc2c1 [Compound 2, 2-((2-oxo-2H-chromen-6-yl)oxy)acetic acid]
IC50: 100 µM
